Test results: US6599893B2, “Cephalosporin antibiotics and prodrugs thereof” (Essential Therapeutics, Inc., priority 2000, dated 2003)
≈ marks a conversion by molar mass, not a printed value. Like-named read-outs stand apart in the source and are kept apart here.

Key:
[1] = test system: Staphylococcus aureus Smith (MSSA); assay: Broth microdilution MIC, S. aureus Smith; format: cell-based; details: for MIC: read-out: MIC S. a. Smith
Method: (§1) Compounds were evaluated for antimicrobial activity against a panel of bacterial strains using a broth microdilution assay performed as recommended by the NCCLS (NCCLS (National Committee for Clinical Laboratory Standards). 1993. Methods for dilution antimicrobial susceptibility tests for bacteria that grow aerobically. NCCLS Document M7-A3, 1993. In: NCCLS Antimicrobial Susceptibility Testing, 3rd Ed.)
(§2) The minimum inhibitory concentration (MIC) is defined as the lowest concentration of a compound that prevents the growth of the bacteria.

[2] = test system: Staphylococcus aureus ATCC 29213 (MSSA); assay: Broth microdilution MIC, S. aureus ATCC 29213; format: cell-based; details: for MIC: read-out: MIC S. a. 29213
Method: as §1, §2

[3] = test system: Staphylococcus aureus COL (MRSA, non-β-lactamase producing); assay: Broth microdilution MIC, S. aureus COL; format: cell-based; details: for MIC: read-out: MIC S. a. COL
Method: as §1, §2

[4] = test system: Staphylococcus aureus 76 (MRSA, β-lactamase producing); assay: Broth microdilution MIC, S. aureus 76; format: cell-based; details: for MIC: read-out: MIC S. a. 76
Method: as §1, §2

[5] = test system: Enterococcus faecalis ATCC 29212; assay: Broth microdilution MIC, E. faecalis ATCC 29212; format: cell-based
Method: as §1, §2

[6] = test system: Enterococcus faecium ATCC 35667; assay: Broth microdilution MIC, E. faecium ATCC 35667; format: cell-based
Method: as §1, §2

S. aureus strain Smith = assay: Experimental infection of mice, ED50; format: in vivo, Swiss-Webster mice; details: for ED50: Staphylococcus aureus, read-out: ED50, mg/kg (95% C.I.)
Method: Staphylococcus aureus strain Smith (ATCC 13709, penicillin-susceptible) or strain 76 (methicillin-resistant) was cultured overnight at 37° C. in brain-heart infusion broth (BHIB). The following morning, a portion of the culture was transferred to fresh BHIB and incubated for an additional 4-5 hours at 37° C. The cells were harvested by centrifugation, washed twice with PBS, and adjusted to the desired inoculum amount. The cell suspension was mixed with an equal volume of sterile 14% hog-gastric mucin (Comber K. R.; Osborne C. D.; Sutherland R.: Comparative effects of amoxicillin and ampicillin in the treatment of experimental mouse infections. Antimicrobial Agents and Chemotherapy 7(2):179-185, 1975). The inoculum was kept in an ice bath until used (preferably in less than one hour).
Male Swiss-Webster mice were challenged intraperitoneally with 0.5 mL of a bacterial suspension of S. aureus strain Smith (LD50). Test compounds were administered subcutaneously in 0.1 mL volumes immediately after inoculation and 2 hours later. […] The total dose associated with 50% survival (ED50) was determined using the probit method (Pasiello, A. P., J. M. Essigmann, and G. N. Wogan.: Rapid and accurate determination of median lethal dose (LD50) and its error with a small computer. J Toxicol. Environ. Health. 3:797-809, 1977).

[7] = Human serum binding by ultrafiltration; format: in vitro ADME
Method: Binding of several representative compounds of this invention in pooled human serum was determined using ultrafiltration. Compounds were incubated in serum for 10 minutes at 37° C. in a shaking water bath. Serum ultrafiltrate was accomplished by centrifugation (Amicon Centrifree) for 20 minutes at 25° C. Compound content in the ultrafiltrate was quantified by HPLC. An ultrafilrate obtained by following the same procedure with no added compound was used as a standard.

[8] = Human serum binding estimated from serum effect on MIC (HSB*); format: in vitro ADME; details: MIC against S. aureus ATCC 29213 in growth medium vs 1:1 growth medium and human serum
Text: An estimate of human serum binding (HSB*) was obtained for some compounds using the MIC values against S. aureus ATCC 29213 determined in growth medium (GM) and in a 1:1 mixture of growth medium and human serum (GM+HS):
HSB*=(MICGM+HS−MICGM)/MICGM 100%

[9] = Staphylococcus aureus Smith (MSSA)
[10] = Staphylococcus aureus ATCC 29213 (MSSA)
[11] = Staphylococcus aureus COL (MRSA, non-β-lactamase producing)
[12] = Staphylococcus aureus 76 (MRSA, β-lactamase producing)
[13] = ATCC29212, Enterococcus faecalis ATCC 29212, read-out: MIC E. f. 29212
[14] = ATCC35667, Enterococcus faecium ATCC 35667, read-out: MIC E. f. 35667
[15] = 50% efficacious dose, S. aureus Smith, mice challenged intraperitoneally, compound subcutaneously at 0 and 2 h, total dose, 72 h survival
[16] = pooled human serum, ultrafiltration, 10 minutes at 37° C.
[17] = Enterococcus faecalis ATCC 29212
[18] = Enterococcus faecium ATCC 35667

MIC [1, 9] [µg/mL]	MIC [2, 10] [µg/mL]	MIC [3, 11] [µg/mL]	MIC [4, 12] [µg/mL]	MIC [5, 13] [µg/mL]	MIC [6, 14] [µg/mL]	HSB, human serum binding [7, 16] [%]	HSB*, human serum binding calculated using serum effect on MIC [8]	Structure (SMILES)	MIC S. a. Smith [1, 9] [µg/mL]	MIC S. a. 29213 [2, 10] [µg/mL]	MIC S. a. COL [3, 11] [µg/mL]	MIC S. a. 76 [4, 12] [µg/mL]	MIC E. f. 29212 [5, 17] [µg/mL]	MIC E. f. 35667 [6, 18] [µg/mL]	other results
0.125 (≈ 0.234 µM)	0.125 (≈ 0.234 µM)	2 (≈ 3.75 µM)	2 (≈ 3.75 µM)	0.25 (≈ 0.468 µM)	2 (≈ 3.75 µM)	–	— (98%)	Cc1nnsc1SC1=C(C(=O)O)N2C(=O)[C@@H](NC(=O)C(=NO)c3nc(N)sc3Cl)C2SC1 (stereo partly drawn) [Compound 34, (7R)-7-[2-(2-Amino-5-chlorothiazol-4-yl)-2-hydroxyiminoacetylamino]-3-(4-methyl-[1,2,3]thiadiazol-5-ylsulfanyl)-8-oxo-5-thia-1-aza-bicyclo[4.2.0]oct-2-ene-2-carboxylic acid]	–	–	–	–	–	–	–
0.125 (≈ 0.249 µM)	0.25 (≈ 0.498 µM)	4 (≈ 7.98 µM)	4 (≈ 7.98 µM)	2 (≈ 3.99 µM)	1 (≈ 1.99 µM)	79	50%	Nc1nc(C(=NO)C(=O)N[C@@H]2C(=O)N3C(C(=O)O)=C(Sc4nnc(N)s4)CSC23)ns1 (stereo partly drawn) [Compound 37, (7R)-7-[2-(5-Amino-[1,2,4]thiadiazol-3-yl)-2-hydroxyimino-acetylamino]-3-(5-amino-[1,3,4]thiadiazol-2-ylsulfanyl)-8-oxo-5-thia-1-aza-bicyclo[4.2.0]oct-2-ene-2-carboxylic acid]	–	–	–	–	–	–	–
0.125 (≈ 0.257 µM)	0.125 (≈ 0.257 µM)	8 (≈ 16.4 µM)	8 (≈ 16.4 µM)	1 (≈ 2.06 µM)	2 (≈ 4.11 µM)	–	— (94%)	Nc1nc(C(=NO)C(=O)N[C@@H]2C(=O)N3C(C(=O)O)=C(Sc4cnns4)CSC23)ns1 (stereo partly drawn) [Compound 39, (7R)-7-[2-(5-Amino-[1,2,4]thiadiazol-3-yl)-2-hydroxyimino-acetylamino]-8-oxo-3-([1,2,3]thiadiazol-5-ylsulfanyl)-5-thia-1-aza-bicyclo[4.2.0]oct-2-ene-2-carboxylic acid]	–	–	–	–	–	–	–
0.5 (≈ 0.994 µM)	0.25 (≈ 0.497 µM)	8 (≈ 15.9 µM)	8 (≈ 15.9 µM)	1 (≈ 1.99 µM)	4 (≈ 7.95 µM)	92	88%	Nc1nc(C(=NO)C(=O)N[C@@H]2C(=O)N3C(C(=O)O)=C(Sc4nnc[nH]4)CSC23)c(Cl)s1 (stereo partly drawn) [Compound 40, (7R)-7-[2-(2-Amino-5-chlorothiazol-4-yl)-2-hydroxyimino-acetylamino]-8-oxo-3-(4H-[1,2,4]triazol-3-ylsulfanyl)-5-thia-1-aza-bicyclo[4.2.0]oct-2-ene-2-carboxylic acid]	–	–	–	–	–	–	–
0.125 (≈ 0.24 µM)	0.125 (≈ 0.24 µM)	1 (≈ 1.92 µM)	1 (≈ 1.92 µM)	0.25 (≈ 0.481 µM)	0.5 (≈ 0.962 µM)	91	98%	Nc1nc(C(=NO)C(=O)N[C@@H]2C(=O)N3C(C(=O)O)=C(Sc4nncs4)CSC23)c(Cl)s1 (stereo partly drawn) [Compound 41, (7R)-7-[2-(2-Amino-5-chlorothiazol-4-yl)-2-hydroxyiminoacetylamino]-8-oxo-3-([1,3,4]thiadiazol-2-ylsulfanyl)-5-thia-1-aza-bicyclo[4.2.0]oct-2-ene-2-carboxylic acid]	–	–	–	–	–	–	–

The next lines start with the molecule.

Structure (SMILES)	MIC [1, 9] [µg/mL]	MIC [2, 10] [µg/mL]	MIC [3, 11] [µg/mL]	MIC [4, 12] [µg/mL]	MIC [5, 13] [µg/mL]	MIC [6, 14] [µg/mL]	HSB, human serum binding [7, 16] [%]	HSB*, human serum binding calculated using serum effect on MIC [8]	MIC S. a. Smith [1, 9] [µg/mL]	MIC S. a. 29213 [2, 10] [µg/mL]	MIC S. a. COL [3, 11] [µg/mL]	MIC S. a. 76 [4, 12] [µg/mL]	MIC E. f. 29212 [5, 17] [µg/mL]	MIC E. f. 35667 [6, 18] [µg/mL]	other results
Nc1nc(/C(=N/O)C(=O)N[C@@H]2C(=O)N3C(C(=O)O)=C(Sc4ccncc4)CS[C@H]23)c(Cl)s1 [Compound 21]	0.25 (≈ 0.487 µM)	0.25 (≈ 0.487 µM)	2 (≈ 3.9 µM)	2 (≈ 3.9 µM)	0.5 (≈ 0.975 µM)	2 (≈ 3.9 µM)	98	–	–	–	–	–	–	–	ED50 (S. aureus strain Smith; [15]): 3.6 mg/kg
Nc1nc(/C(=N/O)C(=O)N[C@@H]2C(=O)N3C(C(=O)O)=C(Sc4ccncc4CSc4ccncc4)CS[C@H]23)c(Cl)s1 [Compound 25]	–	–	–	–	–	–	–	–	0.25 (≈ 0.393 µM)	0.25 (≈ 0.393 µM)	1 (≈ 1.57 µM)	2 (≈ 3.14 µM)	0.125 (≈ 0.196 µM)	0.25 (≈ 0.393 µM)	ED50, mg/kg (95% C.I.) (S. aureus strain Smith; [15]): >5 mg/kg; HSB, human serum binding [7]: >99%
Nc1nnc(SCc2cnccc2SC2=C(C(=O)O)N3C(=O)[C@@H](NC(=O)/C(=N\O)c4nc(N)sc4Cl)[C@H]3SC2)s1 [Compound 26]	–	–	–	–	–	–	>99	–	0.06 (≈ 0.0912 µM)	0.25 (≈ 0.38 µM)	1 (≈ 1.52 µM)	2 (≈ 3.04 µM)	0.25 (≈ 0.38 µM)	0.5 (≈ 0.76 µM)	ED50, mg/kg (95% C.I.) (S. aureus strain Smith; [15]): 0.38 (01-0.7) mg/kg
Nc1nc(/C(=N/O)C(=O)N[C@@H]2C(=O)N3C(C(=O)O)=C(Sc4ccncc4CSCCNC=O)CS[C@H]23)c(Cl)s1 [Compound 27]	–	–	–	–	–	–	–	–	0.25 (≈ 0.397 µM)	0.25 (≈ 0.397 µM)	2 (≈ 3.17 µM)	4 (≈ 6.35 µM)	0.25 (≈ 0.397 µM)	1 (≈ 1.59 µM)	ED50, mg/kg (95% C.I.) (S. aureus strain Smith; [15]): 2.27 (1.0-5.5) mg/kg; HSB, human serum binding [7]: 94%
Nc1nc(/C(=N/O)C(=O)N[C@@H]2C(=O)N3C(C(=O)O)=C(Sc4cccc5nncn45)CS[C@H]23)c(Cl)s1 [Compound 35]	–	–	–	–	–	–	–	— (88%)	0.25 (≈ 0.452 µM)	0.5 (≈ 0.904 µM)	4 (≈ 7.23 µM)	4 (≈ 7.23 µM)	0.25 (≈ 0.452 µM)	4 (≈ 7.23 µM)	–
Nc1nnc(SC2=C(C(=O)O)N3C(=O)[C@@H](NC(=O)C(=NO)c4nc(N)sc4Cl)C3SC2)s1 (stereo partly drawn) [Compound 36, (7R)-7-[2-(2-amino-5-chlorothiazol-4-yl)-2-hydroxyiminoacetylamino]-3-(5-amino-[1,3,4]thiadiazol-2-ylsulfanyl)-8-oxo-5-thia-1-aza-bicyclo[4.2.0]oct-2-ene-2-carboxylic acid]	0.25 (≈ 0.467 µM)	0.25 (≈ 0.467 µM)	1 (≈ 1.87 µM)	2 (≈ 3.74 µM)	0.25 (≈ 0.467 µM)	1 (≈ 1.87 µM)	90	94%	–	–	–	–	–	–	–
CN[C@H](CC(C)C)C(=O)N[C@H]1C(=O)N[C@@H](CC(N)=O)C(=O)N[C@H]2C(=O)N[C@H]3C(=O)N[C@H](C(=O)N[C@H](C(=O)O)c4cc(O)cc(O)c4-c4cc3ccc4O)[C@H](O)c3ccc(c(Cl)c3)Oc3cc2cc(c3O[C@@H]2O[C@H](CO)[C@@H](O)[C@H](O)[C@H]2O[C@H]2C[C@](C)(N)[C@H](O)[C@H](C)O2)Oc2ccc(cc2Cl)[C@H]1O [Vancomycin, reference compound]	–	–	–	–	–	–	–	–	–	–	–	–	–	–	MIC ([1]; Staphylococcus aureus, MSSA): 0.5 µg/mL (≈ 0.345 µM); MIC ([2]; Staphylococcus aureus): 0.5 µg/mL (≈ 0.345 µM); MIC ([3]; Staphylococcus aureus, MRSA): 1 µg/mL (≈ 0.69 µM); MIC ([4]; Staphylococcus aureus, MRSA): 0.5 µg/mL (≈ 0.345 µM); MIC ([5]; Enterococcus faecalis, ATCC29212, read-out: MIC E. f. 29212): 1 µg/mL (≈ 0.69 µM); MIC ([6]; Enterococcus faecium, ATCC35667, read-out: MIC E. f. 35667): 0.25 µg/mL (≈ 0.173 µM); ED50 (S. aureus strain Smith): 2.1 mg/kg
